The values below come from patent publication US20240150362A1, “Substituted Pyrrolotriazines” (Molecure S.A., priority 2022, published 2024).

Counter-ions that a name gives are not always drawn.

The assay deals with T1, full-length USP7 (Homo sapiens, UniProt Q93009).
T1 construct: A 45 μl reaction volume containing full-length USP7 (0.5-1.0 nM)
T1 sequence (Q93009 whole entry): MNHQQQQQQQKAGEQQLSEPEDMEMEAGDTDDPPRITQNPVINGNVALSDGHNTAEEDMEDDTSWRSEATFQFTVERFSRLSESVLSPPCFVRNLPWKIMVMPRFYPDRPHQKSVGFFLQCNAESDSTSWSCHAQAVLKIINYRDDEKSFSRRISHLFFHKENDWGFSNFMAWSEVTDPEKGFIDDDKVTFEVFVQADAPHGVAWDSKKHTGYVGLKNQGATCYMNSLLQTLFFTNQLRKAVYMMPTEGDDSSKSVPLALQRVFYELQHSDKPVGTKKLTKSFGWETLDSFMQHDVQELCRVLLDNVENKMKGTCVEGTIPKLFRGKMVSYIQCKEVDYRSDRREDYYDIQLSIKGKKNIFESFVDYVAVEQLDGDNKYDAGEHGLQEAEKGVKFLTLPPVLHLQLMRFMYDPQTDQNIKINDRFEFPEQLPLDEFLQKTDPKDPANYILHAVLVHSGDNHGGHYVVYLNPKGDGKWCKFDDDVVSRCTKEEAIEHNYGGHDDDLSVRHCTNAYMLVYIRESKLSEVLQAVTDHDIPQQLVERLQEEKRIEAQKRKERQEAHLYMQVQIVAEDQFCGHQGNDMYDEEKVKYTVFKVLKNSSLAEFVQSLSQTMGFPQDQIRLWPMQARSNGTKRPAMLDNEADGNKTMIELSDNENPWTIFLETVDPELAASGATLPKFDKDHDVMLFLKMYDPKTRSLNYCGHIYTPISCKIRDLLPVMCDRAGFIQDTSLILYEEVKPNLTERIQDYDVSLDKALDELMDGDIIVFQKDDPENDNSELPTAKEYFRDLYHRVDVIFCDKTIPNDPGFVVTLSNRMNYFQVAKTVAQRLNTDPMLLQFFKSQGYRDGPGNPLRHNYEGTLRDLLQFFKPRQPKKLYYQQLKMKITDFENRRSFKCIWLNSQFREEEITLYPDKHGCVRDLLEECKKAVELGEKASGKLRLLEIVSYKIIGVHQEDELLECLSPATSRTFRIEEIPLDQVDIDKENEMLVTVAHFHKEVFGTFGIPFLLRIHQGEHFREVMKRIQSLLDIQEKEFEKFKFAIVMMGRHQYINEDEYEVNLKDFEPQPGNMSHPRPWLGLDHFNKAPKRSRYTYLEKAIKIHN
Kind of assay: Enzymatic assay to determine IC50 of USP7 inhibitors (Ubiquitin-Rhodamine 110 cleavage). The assay is classed as biochemical. Conditions: full-length USP7 0.5-1.0 nM, 0.5 μM Ubiquitin-Rhodamine 110, 30-60 min at 25° C. On the procedure: Enzymatic Assay to Determine IC50 of USP7 Inhibitors
The IC50 is the concentration of an inhibitor where the measured enzyme activity is reduced by half. In the case of USP7 deubiquitinase, the IC50 of an USP7 inhibitor is the molar concentration of the compound that inhibits 50% of the activity observed in a USP7-mediated-ubiquitin-rhodamine cleavage assay. For the inhibitors disclosed herein, their potency was measured using the following method.
A 45 μl reaction volume containing full-length USP7 (0.5-1.0 nM) in 50 mM HEPES pH 7.5, 150 mM NaCl, 2 mM DTT, 1 mg/ml BSA and 0.05% Tween20 was assembled in wells of 96 well half area black flat bottom plates. Test compounds were first dissolved to 30 mM stocks in DMSO and subsequently introduced to enzyme 15 min after USP7 incubation with DTT at room temperature. The enzymatic reaction was started by adding 0.5 μM Ubiquitin-Rhodamine 110 (final concentration) and allowed to proceed for 30-60 min at 25° C., 250 RPM shaking before Rhodamine fluorescence (485 nm excitation/535 nm emission) was measured using Tecan Spark M10 plate reader. The IC50 values were determined by data fitting to variable slope model four-parameter dose-response curve using GraphPad 7.05.
Broadly, the IC50 is the midpoint of a concentration-inhibition curve. Low values mean higher potency, high ones lower potency. `Cc1cc(Cl)cc(-c2ncnn3cc(CN4C(=O)C5C(C4=O)C5(C)C)cc23)c1NCC1(F)CCNCC1` (stereo not drawn) [Example 80, 3-((4-(5-chloro-2-(((4-fluoropiperidin-4-yl)methyl)amino)-3-methylphenyl)pyrrolo[2,1-f][1,2,4]triazin-6-yl)methyl)-6,6-dimethyl-3-azabicyclo[3.1.0]hexane-2,4-dione dihydrochloride] yielded an IC50 of less than 0.5 µM.

As to `Cc1cc(Cl)cc(-c2ncnn3cc(Cn4c(=O)ccn(CC(F)(F)F)c4=O)cc23)c1CC1CNCCO1` (racemic) [Example 68, 3-((4-(5-chloro-3-methyl-2-(morpholin-2-ylmethyl)phenyl)pyrrolo[2,1-f][1,2,4]triazin-6-yl)methyl)-1-(2,2,2-trifluoroethyl)pyrimidine-2,4(1H,3H)-dione hydrochloride], the IC50 was less than 0.5 µM.

Molecule `CC1(C)C2C(=O)N(Cc3cc4c(-c5cc(Cl)cc6c5N(C5CCNC5)CCC6)ncnn4c3)C(=O)C21` (single isomer, unassigned) [Example 66, 3-((4-(6-chloro-1-(pyrrolidin-3-yl)-1,2,3,4-tetrahydroquinolin-8-yl)pyrrolo[2,1-f][1,2,4]triazin-6-yl)methyl)-6,6-dimethyl-3-azabicyclo[3.1.0]hexane-2,4-dione hydrochloride] registered an IC50 of less than 0.5 µM.

With `Cc1cc(Cl)cc(-c2ncnn3cc(CN4C(=O)C5C(C4=O)C5(C)C)cc23)c1OCC1(C)CCNCC1` (stereo not drawn) [Example 58, 3-((4-(5-chloro-3-methyl-2-((4-methylpiperidin-4-yl)methoxy)phenyl)pyrrolo[2,1-f][1,2,4]triazin-6-yl)methyl)-6,6-dimethyl-3-azabicyclo[3.1.0]hexane-2,4-dione hydrochloride], the IC50 was less than 0.5 µM.

With `CC1(C)C2C(=O)N(Cc3cc4c(-c5cc(Cl)cc6ccn(CC7CNCCO7)c56)ncnn4c3)C(=O)C21` (stereo not drawn) [Example 24, 3-((4-(5-chloro-1-(morpholin-2-ylmethyl)-1H-indol-7-yl)pyrrolo[2,1-f][1,2,4]triazin-6-yl)methyl)-6,6-dimethyl-3-azabicyclo[3.1.0]hexane-2,4-dione dihydrochloride], the IC50 was less than 0.5 µM.

Take `Cc1cc(Cl)cc(-c2ncnn3cc(Cn4c(=O)ccn(CC(F)(F)F)c4=O)cc23)c1CC1CNC[C@H](C)O1` (stereo partly drawn) [Example 62, 3-((4-(5-chloro-3-methyl-2-(((6S)-6-methylmorpholin-2-yl)methyl)phenyl)pyrrolo[2,1-f][1,2,4]triazin-6-yl)methyl)-1-(2,2,2-trifluoroethyl)pyrimidine-2,4(1H,3H)-dione hydrochloride]: the half-inhibitory concentration (IC50) was less than 0.5 µM.

The molecule `Cc1cc(Cl)cc(-c2ncnn3cc(Cn4c(=O)ccn(C)c4=O)cc23)c1CC1CNCCO1` (racemic) [Example 60, 3-((4-(5-chloro-3-methyl-2-(morpholin-2-ylmethyl)phenyl)pyrrolo[2,1-f][1,2,4]triazin-6-yl)methyl)-1-methylpyrimidine-2,4(1H,3H)-dione hydrochloride] displayed an IC50 of less than 0.5 µM.

`Cc1cc(Cl)cc(-c2ncnn3cc(Cn4c(=O)ccn(C)c4=O)cc23)c1CC1CNC[C@H](C)O1` (stereo partly drawn) [Example 59, 3-((4-(5-chloro-3-methyl-2-(((6S)-6-methylmorpholin-2-yl)methyl)phenyl)pyrrolo[2,1-f][1,2,4]triazin-6-yl)methyl)-1-methylpyrimidine-2,4(1H,3H)-dione hydrochloride] yielded an IC50 of less than 0.5 µM.

Molecule `Cc1cc(Cl)cc(-c2ncnn3cc(CN4C(=O)C5C(C4=O)C5(C)C)c(C)c23)c1C[C@@H]1CNCCO1` (stereo partly drawn) [Example 13, 3-((4-(5-chloro-3-methyl-2-(((R)-morpholin-2-yl)methyl)phenyl)-5-methylpyrrolo[2,1-f][1,2,4]triazin-6-yl)methyl)-6,6-dimethyl-3-azabicyclo[3.1.0]hexane-2,4-dione hydrochloride] yielded an IC50 of 0.5 to 1 µM.

In turn, `Cc1cc(Cl)cc(-c2ncnn3cc(Cn4c(=O)ccn(C5CC5)c4=O)cc23)c1CC1CNC[C@H](C)O1` (single isomer, unassigned) [Example 106, hydrochloride] yielded an IC50 of less than 0.5 µM.

The molecule `Cc1cc(Cl)cc(-c2ncnn3cc(CN4C(=O)C5C(C4=O)C5(C)C)cc23)c1CN1[C@@H](C)CNC[C@@H]1C` (stereo partly drawn) [Example 11, 3-((4-(5-chloro-2-(((2S,6S)-2,6-dimethylpiperazin-1-yl)methyl)-3-methylphenyl)pyrrolo[2,1-f][1,2,4]triazin-6-yl)methyl)-6,6-dimethyl-3-azabicyclo[3.1.0]hexane-2,4-dione dihydrochloride] showed an IC50 of less than 0.5 µM.

With `CC1(C)C2C(=O)N(Cc3cc4c(-c5cc(Cl)cc6ccn(C[C@@H]7CNCCO7)c56)ncnn4c3)C(=O)C21` (single isomer, unassigned) [Example 30, dihydrochloride], the IC50 was less than 0.5 µM.

The molecule `Cc1cc(Cl)cc(-c2ncnn3cc(CN4C(=O)C5C(C4=O)C5(C)C)cc23)c1CC1CN[C@H](C)CO1` (single isomer, unassigned) [Example 41, hydrochloride] gave an IC50 of less than 0.5 µM.

With `Cc1cc(Cl)cc(-c2ncnn3cc(CN4C(=O)C5C(C4=O)C5(C)C)cc23)c1CC1CN[C@@H](C)CO1` (stereo partly drawn) [Example 49, 3-((4-(5-chloro-3-methyl-2-(((5S)-5-methylmorpholin-2-yl)methyl)phenyl)pyrrolo[2,1-f][1,2,4]triazin-6-yl)methyl)-6,6-dimethyl-3-azabicyclo[3.1.0]hexane-2,4-dione hydrochloride], the IC50 is less than 0.5 µM.

Take `Cc1cc(Cl)cc(-c2ncnn3cc(Cn4c(=O)ccn(C(C)C)c4=O)cc23)c1C[C@@H]1CNCCO1` (single isomer, unassigned) [Example 89, hydrochloride]: the 50% inhibitory concentration (IC50) is less than 0.5 µM.

Regarding `Cc1cc(Cl)cc(-c2ncnn3cc(CN4C(=O)CCN(C)C4=O)cc23)c1CC1CNC[C@H](C)O1` (stereo partly drawn) [Example 109, 3-((4-(5-chloro-3-methyl-2-(((6S)-6-methylmorpholin-2-yl)methyl)phenyl)pyrrolo[2,1-f][1,2,4]triazin-6-yl)methyl)-1-methyldihydropyrimidine-2,4(1H,3H)-dione hydrochloride], the IC50 is less than 0.5 µM.

As for `Cn1ccc(=O)n(Cc2cc3c(-c4cc(Cl)cc5ccn(CC6(F)CCNCC6)c45)ncnn3c2)c1=O` [Example 61, 3-((4-(5-chloro-1-((4-fluoropiperidin-4-yl)methyl)-1H-indol-7-yl)pyrrolo[2,1-f][1,2,4]triazin-6-yl)methyl)-1-methylpyrimidine-2,4(1H,3H)-dione hydrochloride], the IC50 is less than 0.5 µM.

Consider `O=c1ccn(CC(F)(F)F)c(=O)n1Cc1cc2c(-c3cc(Cl)cc4ccn(CC5(F)CCNCC5)c34)ncnn2c1` [Example 70, 3-((4-(5-chloro-1-((4-fluoropiperidin-4-yl)methyl)-1H-indol-7-yl)pyrrolo[2,1-f][1,2,4]triazin-6-yl)methyl)-1-(2,2,2-trifluoroethyl)pyrimidine-2,4(1H,3H)-dione dihydrochloride], for which the IC50 was less than 0.5 µM.

For `C[C@H]1CN(C2CCNC2)c2c(cc(Cl)cc2-c2ncnn3cc(CN4C(=O)C5C(C4=O)C5(C)C)cc23)O1` (stereo partly drawn) [Example 94, 3-((4-((2S)-7-chloro-2-methyl-4-(pyrrolidin-3-yl)-3,4-dihydro-2H-benzo[b][1,4]oxazin-5-yl)pyrrolo[2,1-f][1,2,4]triazin-6-yl)methyl)-6,6-dimethyl-3-azabicyclo[3.1.0]hexane-2,4-dione hydrochloride], the IC50 is less than 0.5 µM.

Molecule `Cc1cc(Cl)cc(-c2ncnn3cc(CN4C(=O)C5C(C4=O)C5(C)C)cc23)c1NCC1(C)CCNCC1` (stereo not drawn) [Example 78, 3-((4-(5-chloro-3-methyl-2-(((4-methylpiperidin-4-yl)methyl)amino)phenyl)pyrrolo[2,1-f][1,2,4]triazin-6-yl)methyl)-6,6-dimethyl-3-azabicyclo[3.1.0]hexane-2,4-dione dihydrochloride] showed an IC50 of less than 0.5 µM.

The molecule `CC1(C)C2C(=O)N(Cc3cc4c(-c5cc(Cl)cc6ccn(CC7(F)CCNCC7)c56)ncnn4c3)C(=O)C21` (stereo not drawn) [Example 10, 3-((4-(5-chloro-1-((4-fluoropiperidin-4-yl)methyl)-1H-indol-7-yl)pyrrolo[2,1-f][1,2,4]triazin-6-yl)methyl)-6,6-dimethyl-3-azabicyclo[3.1.0]hexane-2,4-dione hydrochloride] had an IC50 of less than 0.5 µM.

Molecule `Cc1cc(Cl)cc(-c2ncnn3cc(CN4C(=O)C5C(C4=O)C5(C)C)cc23)c1CC1CNC[C@H](C)O1` (stereo partly drawn) [Example 27, 3-((4-(5-chloro-3-methyl-2-(((6S)-6-methylmorpholin-2-yl)methyl)phenyl)pyrrolo[2,1-f][1,2,4]triazin-6-yl)methyl)-6,6-dimethyl-3-azabicyclo[3.1.0]hexane-2,4-dione dihydrochloride] had an IC50 of less than 0.5 µM.

Molecule `Cc1cc(Cl)cc(-c2ncnn3cc(Cn4c(=O)cc[nH]c4=O)cc23)c1C[C@@H]1CNCCO1` (single isomer, unassigned) [Example 124, hydrochloride] showed a 50% inhibitory concentration (IC50) of less than 0.5 µM.

Take `Cc1cc(Cl)cc(-c2ncnn3cc(Cn4c(=O)ccn(C)c4=O)cc23)c1C[C@@H]1CNCCO1` (single isomer, unassigned) [Example 82, hydrochloride]: the IC50 was less than 0.5 µM.
